The target in series [1] is T1, FBD35 (PfFKBP35 binding domain) (Plasmodium falciparum, UniProt Q8I4V8).
T1 construct: FKBP35 Q5 -A128; 6His-SUMO (N, cleaved yes); made in house; host or cells: E. coli BL21 DE3
In words: Fluorescence polarization competition, FBD35. (In general: In fluorescence polarisation assays a small probe gives low polarisation when free and higher when bound to something large.)

Series [2] deals with T2, FKBP12 (Homo sapiens, UniProt P62942).
T2 construct: 6His-SUMO (N, cleaved yes); made in house; host or cells: E. coli (identical protocol to FBD35, BL21 DE3)
T2 sequence (P62942 whole entry): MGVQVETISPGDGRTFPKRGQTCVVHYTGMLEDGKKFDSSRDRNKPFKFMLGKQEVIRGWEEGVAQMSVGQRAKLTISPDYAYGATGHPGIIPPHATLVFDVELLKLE
Description: Fluorescence polarization competition, FKBP12. Type of series: binding.

For series [3], the target named is T1, FBD35 (PfFKBP35 binding domain). Description: Differential scanning calorimetry, FBD35. The following applies: read-out: FBD35 ΔTM.
Series [4] deals with T2, FKBP12. In words: Differential scanning calorimetry, FKBP12. Type of series: binding. The following applies: compound 40 µM. (DSC measures the heat that a sample takes up or gives off during a temperature scan.)
Series [5] is described as follows: PBS solubility. Conditions: pH 7.4.
Series [6] concerns the target T3, nLuc-tagged full length PfFKBP35 (Plasmodium falciparum, UniProt Q8I4V8).
T3 construct: nanoluciferase-tagged (nLuc) full length PfFKBP35 or nLuc-tagged FKBP12; expressed in transfected cells
In words: NanoBRET cellular target engagement, nLuc-FKBP35. In kind it is cell-based. A general note: BRET reads energy transfer from a luciferase to a nearby fluorophore.

Series [7] has as its target T4, nLuc-tagged FKBP12 (Homo sapiens, UniProt P62942).
T4 construct: full length Plasmodium falciparum FKBP35 and human FKBP12 DNA were; expressed in transfected cells
In words: NanoBRET cellular target engagement, nLuc-FKBP12. Type of series: cell-based.

For series [8], the target named is T5, FKBP35 (Plasmodium falciparum, UniProt Q8I4V8).
T5 construct: FKBP35 Q5 -A128; 6His-SUMO (N, cleaved yes); made in house; host or cells: E. coli BL21 DE3
T5 sequence (Q8I4V8 5-128): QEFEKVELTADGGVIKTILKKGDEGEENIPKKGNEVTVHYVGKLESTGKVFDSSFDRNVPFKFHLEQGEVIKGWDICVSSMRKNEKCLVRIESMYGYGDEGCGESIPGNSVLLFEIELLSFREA
In words: Time course of covalent modification by LC-MS. In kind it is biochemical. The source says:
RT=5.2). B. Overlay of mass determinations from LC traces in (A). FBD35 only (black, m/z = […]
chromatogram corresponding to Figure 4c detecting the CAM -peptide […] at […]
m/z 855.8668. D. Mass spec chromatogram corresponding to Figure 4d detecting the CAM - […]
peptide […] at m/z 855.8670. E. Mass spec chromatogram corresponding to Figure 4e which was unable to detect the mass of the 1c-inclusion peptide. F. Mass spec chromatogram corresponding to Figure 4f detecting the 1c-inclusion peptide […]
Figure S2. Time course of covalent modification. In order to compare rates of covalent modification, compounds 1a-c, 2a, and 2c were incubated with FKBP35 in a 5:1 ratio (2250 nM inhibitor : 450 nM FKBP35) and FKBP35 consumption or modification determined by LC -MS. A.
The concentration of residual FKBP35 as a function of time. Data was fit to an exponential “one phase decay” model which was used to calculate the rate (K) and half -life (t1/2) of the reaction.
The loss of FKBP35 in the DMSO and 1b controls is likely due to adsorption onto the vial. B.
Concentration of covalent adduct as a function of time. Data was fit to an “exponential plateau” regression model, which was used to calculate the rate of formation (K’). Compound 1b, which […]
C. Tabulated rates calculated from the regressions in A and B. The rates of FKBP35 consumption correlate strongly with the rates of […]
(also on this page, place not known: -inclusion 1c 0 20 40 60 0 200 400 600 Time (hours) FKBP35 (nM) Consumption of FKBP35 1a 1b 1c 2a 2c DMSO 0 20 40 60 0 200 400 600 Time (hours) Covalent Adduct (nM) Formation of Covalent Adduct 1a 1b 1c 2a 2c A B) […]
(1 picture or pasted object on this page, not shown here)
Experiments were performed using 0.4 mg/mL concentration of wild -type or mutant protein (6 - 9 uM), with and without synthes ized compounds at 40 µM and 2% DMSO (V/V). The respective reference scans were run under identical DSC conditions and subtracted from each sample scan.
The program was run in a continuous acquisition mode from 25°C to 90°C at a rate of 120C/h The heat capacity curves and midpoint temperature (Tm) were analyzed using Origin 7.0 software.
Fluorescence Polarization
The fluorescent tracer SLFb-2PEG-TAMRA was diluted in DMSO to 100 nM (100x stock concentration). FKBP proteins were diluted in assay buffer (150 mM NaCl, 20 mM HEPES pH 7.5, 0.002% Triton X -100) to the indicated concentration. 100x DMSO tracer stock was added to the protein buffer solution to a 1X final concentration and 20 µL of the mixture was aliquoted into each well of a black 384 -well assay plate (No. 3820, Corning Life Sciences). The plate was briefly centrifuged to remove bubbles. Using a d300e digital dispenser (Tecan), competitive ligands (10 mM stock in DMSO) were aliquoted in triplicate in an 8 -point 3x dilution series (30 µM to 13.7 nM final concentra tion) and normalized to 2% total DMSO concentration. Following incubation at room temperature (RT) for one hour, fluorescence polarization was measured using an EnVision Multimode Plate Reader (PerkinElmer) with the TAMRA Dual -FP mirror and filter kit. […]
analyzed in GraphPad Prism 8 by fitting the data to the “One Site – Fit Ki” model to obtain the […]
Time Course Analysis of Covalent Inhibition
The following analy sis was performed as described on two different days, yielding similar results.
One replicate is shown for clarity. In 1.5 mL snap -top tubes, ligands 1a, 1b, 1c, 2a, and 2c were each diluted to 450 μM in DMSO to produce 200x stock solutions. In a separate 1.5 mL snap-top tube, isolated FKBP35 protein was diluted to 90 μM in the reaction buffer (150 mM NaCl, 20 mM HEPES pH = 7.5) to produce a 200x stock solution. In 2 mL glass mass spec vials, 5 μL of each 200x ligand solution was diluted in 990 μL reaction buffer. Immediately prior to injection of each t=0 time point, 5 μL of the 200x protein solution was added to the mass spec vial and mixed. Samples were analyzed using the Waters BioAccord LC-ToF (composed of an ACQUITY I -Class UPLC and […]

Setting [9] is: read-out: FBD35 IC50, fluorescence polarization, competitive inhibition model, * incomplete displacement of fluorescent probe.
Setting [10] is: fluorescence polarization, competitive inhibition model, read-out: FKBP12 IC50.
[11] abbreviates: differential scanning calorimetry, compound 40 µM.

In brackets after ≈: the same amount, converted by molar mass. Like-named read-outs stand apart in the source and are kept apart here.

T1 sequence (Q8I4V8 5-128): as above
T4 sequence (P62942 whole entry): as the sequence (P62942 whole entry) above
T3 sequence (Q8I4V8 whole entry): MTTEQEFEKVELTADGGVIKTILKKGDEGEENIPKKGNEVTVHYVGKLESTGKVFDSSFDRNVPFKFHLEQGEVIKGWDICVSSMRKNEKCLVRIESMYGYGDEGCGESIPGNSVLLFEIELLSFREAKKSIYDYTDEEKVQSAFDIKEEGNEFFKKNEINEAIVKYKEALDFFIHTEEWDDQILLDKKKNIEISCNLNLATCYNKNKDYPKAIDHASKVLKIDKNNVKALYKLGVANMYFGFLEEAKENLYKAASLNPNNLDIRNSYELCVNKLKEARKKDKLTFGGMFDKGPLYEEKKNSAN

For `C=CC(=O)Nc1ccc([C@@H](CCc2ccc(OC)c(OC)c2)OC(=O)[C@@H]2CCCCN2C(=O)C(=O)C(C)(C)CC)cc1` [1d], the 50% inhibitory concentration (IC50) in series [1] stood at 85 nM; in series [2] it was 100 nM. Besides, the ΔTm at 40 µM worked out at 2.3 °C in series [3] and 6 °C in series [4].
In the case of `C=CC(=O)Nc1cccc([C@@H](CCc2ccc(OC)c(OC)c2)OC(=O)[C@@H]2CCCCN2C(=O)C(=O)c2cc(OC)c(OC)c(OC)c2)c1` [1e], the IC50 is more than 30000 nM in series [1] (setting [9]) and 326 nM in series [2]. The ΔTm at 40 µM in series [3] was 1.5 °C; in series [4], 4.9 °C. Besides, the solubility in series [5] came out at 3.1 µM (≈ 2.09 µg/mL).
For `C=CC(=O)Nc1ccccc1[C@@H](CCc1ccc(OC)c(OC)c1)OC(=O)[C@@H]1CCCCN1C(=O)C(=O)c1cc(OC)c(OC)c(OC)c1` [1f], the IC50 in series [1] (setting [9]) was more than 30000 nM; in series [2] (setting [10]), 3270 nM. Further, the figures for the ΔTm at 40 µM in series [3] (setting [11]) and in series [4] were -1.3 °C and 1.4 °C, respectively. The solubility in series [5] came out at 23 µM (≈ 15.5 µg/mL).
Turning to `C=CC(=O)NCC(C)(C)C(=O)C(=O)N1CCCC[C@H]1C(=O)O[C@H](CCc1ccc(OC)c(OC)c1)c1ccccc1` [2a], the IC50 in series [1] amounted to 104 nM; in series [2], 23 nM; in series [6], 1350 nM; in series [7] it was 501 nM. Further, the ΔTm at 40 µM in series [3] stood at 15.2 °C; in series [4], 8.8 °C. The “K, rate of FKBP35 consumption” value in series [8] (2250 nM inhibitor : 450 nM FKBP35, 23 °C, one phase decay fit) came to 0.05916 h⁻¹. For the same molecule, the “K’, rate of covalent adduct formation” value in series [8] (2250 nM inhibitor : 450 nM FKBP35, exponential plateau fit) is 0.04354 h⁻¹.
As for `CCC(=O)NCC(C)(C)C(=O)C(=O)N1CCCC[C@H]1C(=O)O[C@H](CCc1ccc(OC)c(OC)c1)c1ccccc1` [2b], the IC50 in series [1] was 92 nM; in series [2], 40 nM; in series [6] it was 1880 nM; in series [7], 416 nM. Further, the ΔTm at 40 µM in series [3] turned out to be 4.3 °C; in series [4] it was 7.7 °C.
Take `C=CC(=O)NCCCC(=O)N1CCCC[C@H]1C(=O)O[C@H](CCc1ccc(OC)c(OC)c1)c1ccccc1` [2e]: the values for the IC50 in series [1] and in series [2] were 2640 nM and 3250 nM, respectively. Also, the ΔTm at 40 µM turned out to be 13.8 °C in series [3] and 7.9 °C in series [4].
With `C=CC(=O)Nc1ccccc1C(=O)C(=O)N1CCCC[C@H]1C(=O)O[C@H](CCc1ccc(OC)c(OC)c1)c1ccccc1` [2f], in series [2] (setting [10]), the IC50 was more than 30000 nM. Also, the shift in melting temperature (ΔTm) at 40 µM in series [3] (setting [11]) was found to be 0.4 °C; in series [4], 0.2 °C.
`C=CC(=O)Nc1cc(OC)ccc1C(=O)C(=O)N1CCCC[C@H]1C(=O)O[C@H](CCc1ccc(OC)c(OC)c1)c1ccccc1` [2g]: in series [2] (setting [10]), the IC50 was more than 30000 nM. Besides, the results for the ΔTm at 40 µM in series [3] (setting [11]) and in series [4] were 0 °C and 0.1 °C, respectively.
On to `C=CC(=O)OCC(C)(C)C(=O)C(=O)N1CCCC[C@H]1C(=O)O[C@H](CCc1ccc(OC)c(OC)c1)c1cccc(OCC(=O)O)c1` [2h], for which the IC50 is 137 nM in series [1] and 38 nM in series [2]. Also, the ΔTm at 40 µM in series [3] came out at 16.3 °C; in series [4], 6.2 °C. In series [5], this molecule displayed a solubility of 70 µM (≈ 44.8 µg/mL).
In series [1], `CCC(C)(C)C(=O)C(=O)N1CCCC[C@H]1C(=O)O[C@H](CCc1ccc(OC)c(OC)c1)c1cccc(N)c1` [SLF, reference compound] registered an IC50 of 177 nM. The ΔTm at 40 µM in series [3] amounted to 2.9 °C; in series [4] it was 0.4 °C.

For orientation: IC50 means the concentration that gives 50% inhibition. As a reminder, the ΔTm is the shift of the melting midpoint relative to a reference. Usually solubility stands for the concentration that dissolves in the medium under given conditions. Lower therefore signals a poorly soluble substance.
